Source: patent US20180021315A1, “METHODS OF TREATING HEARING DISORDERS” (Wayne State University, priority 2016, published 2018)
“Also recorded” adds a separate entry of the source. Like-named read-outs stand apart in the source and are kept apart here.

What was measured:
[1] = test system: wildtype and TNF-α KO mice
Method: Tinnitus was assessed using the gap detection paradigm. The gap detection task measures the acoustic startle response elicited by a brief white noise pulse and its suppression by a preceding silent gap embedded in a background sound. […] Mice were placed in a small box, which rested atop a piezoelectric sensor within a sound attenuation chamber. Sounds were played through an open field speaker (FOSTEX FT17H) fixed above the small box. Each trial began with a carrier pure tone (frequency pseudo-randomly selected from 5, 7, 10, 14, 20, 28, or 45 kHz, all at 75 dB SPL), played for 10-20 s. In uncued trials, the carrier tone was followed by a startle stimulus—a 50 ms white noise burst at 102 dB SPL. In cued trials, the startle stimulus was preceded by a 50 ms silence, 100 ms prior to its onset. In each testing session, the animal performed a total of 500 trials (50% cued and 50% uncued). After each session, the startle response ratio was calculated, which is defined as the average startle amplitude to the cued trials divided by the average amplitude of the uncued trials. The startle response ratio signifies a silent-gap induced reduction of the startle response. For example, a startle response ratio of 0.6 indicates a 40% reduction of the startle amplitude for the cued trials.

WT and KO mice = conditions: systemic salicylate injection, FIGS. 5C-5D
Method: To assess an animal's ability to perform an auditory task, separate from its ability to detect a silent gap, the pre-pulse inhibition (PPI) task was administered to a subset of the mice before and after NIHL. The physical setup for the PPI task was identical to that of the gap detection. However, the trial structure differed in that carrier tone was absent and a white noise burst was cued by a 50-ms pure tone pulse (frequency pseudo-randomly selected from 5, 7, 10, 14, 20, 28, or 45 kHz, all at 75 dB SPL). In short, the PPI task tests an animal's ability to detect a pure tone pulse in silence, while the gap detection task measures an animal's ability to detect a silent gap in a continuous pure tone.

TNF-α = conditions: has been shown; cited from earlier work
blast-exposed rats [2] = experiment: Blast-induced tinnitus, gap detection, thalidomide treatment; assay type: in vivo, rat; conditions: injected daily for 5 days, FIG. 8C
Method: A rat model of blast-induced tinnitus was developed to investigate the role of TNF-α in a traumatic brain injury (TBI) blast exposure induced tinnitus. Rats were anesthetized with isoflurane (0.75-1% in a 2:1 N2O:O2 gas mixture), placed on supportive netting, and secured with a locking device. All animals had one ear occluded with an earplug before they were blast-exposed in a shock-tube assembly (ORA, Inc.).
Behavioral evidence of blast-induced tinnitus was tested using a gap detection test as described above. […] Blast-exposed rats also spent less time in, and made fewer entries into, the open arms of an elevated plus maze (FIG. 7C), showing a higher anxiety level. The results are consistent with findings in blast-exposed humans and indicate that the blast model is suitable for studying mechanisms and treatment of blast-induced tinnitus and anxiety.

C57BL/6 mice = experiment: Noise-induced tinnitus (NIHL), gap detection task, thalidomide treatment; assay type: in vivo, mouse; conditions: 100 mg/kg IP daily for three days after noise exposure, FIG. 9
Method: All experimental procedures were reviewed and approved by UC Berkeley Animal Care and Use Committee. TNF-α knockout (KO) mice and corresponding C75Bl/6 wild-type (WT) mice were originally purchased from the Jackson Laboratory and were bred in a UC Berkeley animal facility. Animals were anesthetized with ketamine (100 mg/kg, IP) and xylazine (10 mg/kg, IP) and maintained at 36.5° C. with a homeothermic heating pad (Harvard Apparatus). Unilateral noise-induced hearing loss (NIHL) experiments were performed in a sound attenuation chamber by playing a continuous pure tone of 8 kHz at 112 dB SPL through a calibrated custom-made piezo earphone speaker to the left ear of the mouse for 2 hours, while the right ear was protected with sound attenuating clay. The sound level was calibrated with a Bruel and Kjaer 4135 condenser microphone (Nærum, Denmark) before and after the NIHL.
Tinnitus was assessed using the gap detection paradigm.
Eight C57BL/6 mice were tested with the gap detection task, described above, before and after undergoing NIHL. […] Afterward, animals received daily injection of 100 mg/kg (IP) thalidomide for three days and were tested for tinnitus.

blast-exposed rats [3] = experiment: Blast-induced tinnitus, gap ratio, etanercept; assay type: in vivo, rat; conditions: for gap ratio values (gap/startle-only response), therapeutic effect on tinnitus: FIG. 29
Method: Each of the rats was subjected to blast exposure in the left ear using a shock tube (ORA Inc.) located at the Wayne State University Bioengineering Center. The blast exposure of each rat was performed under anesthesia with a mixture of air (1 liter/min) and isoflurane (5% v/v). The rat was placed on supportive netting with a metal surround and secured on a pole with its head facing the oncoming shockwave. During blast exposure, the rat's right ear was occluded with a silicone earplug (Mack's; McKeon Products, Warren, Mich.), followed by application of mineral oil to seal any remaining openings. The average energy under 10 kHz measured at 22 psi was equivalent to 150 kPa or 197.5 dB SPL. After blast exposure, each rat was transferred to a polycarbonate cage.
Thirty two rats from Example 10 were used. Behavioral tinnitus testing, including gap detection and PPI testing, was conducted with Hamilton-Kinder startle-reflex hardware and software. During behavioral testing, each rat was placed in an individual noise-attenuation chamber to perform gap and PPI testing. In the gap procedure, each rat was presented with a constant 60-dB SPL background noise composed of 2,000 Hz bandpass signals at 6-8, 10-12, 14-16, 18-20, or 26-28 kHz or broadband noise (BBN; 2-30 kHz). A 115 dB SPL, 50 ms noise-burst was used as the startle stimulus to induce the acoustic startle reflex. The background noise session contained two conditions, one condition was the startle only condition in which rat was presented with the startle stimulus alone, and the other condition was the gap condition in which a rat was presented with a startle stimulus preceded by a silent gap embedded within the background noise. Silent gaps were 40 ms in duration with a lead interval of 90 ms to the startle stimulus. The startle reflex of rats was measured in response to 3 conditions: 1) background noise alone, 2) startle only, and 3) gap. […] The startle amplitude of rats in response to the two conditions was measured: the startle-only condition and a prepulse followed by the startle stimulus. […]

[4] = 5 mg/kg, I.P. route; cited from earlier work

## O=C(O)c1ccccc1O [salicylate]
[1]; TNF-α KO mice, same dose 300 mg/kg, FIG. 5B
  behavioral manifestation of tinnitus (gap detection): did not show tinnitus
[1]; wildtype mice, systemic injection 300 mg/kg, 30 min later, FIG. 5A
  behavioral manifestation of tinnitus (gap detection): resulted in robust behavioral manifestation of tinnitus
WT and KO mice
  PPI performance: affected PPI performance in WT but not KO mice
TNF-α
  TNF-α expression in the inferior colliculus: increase TNF-α expression in the inferior colliculus

## O=C1CCC(N2C(=O)c3ccccc3C2=O)C(=O)N1 (stereo not shown) [thalidomide]
blast-exposed rats [2]
  blast-induced tinnitus (gap detection): Significant suppression of tinnitus; also recorded: significantly suppressed
C57BL/6 mice
  gap detection performance after NIHL: dramatically improved gap detection performance over a wide frequency range, completely reversing the impairment

## etanercept
blast-exposed rats [3]; 5 mg/kg i.p. daily for 5 days from 1 day after blast, low frequencies and 28 kHz, two-week and three-week timepoints
  gap ratio values (gap/startle-only response), therapeutic effect on tinnitus: significant therapeutic effect on tinnitus
blast-exposed rats [3]; 5 mg/kg i.p. daily for 5 days, one-day and one-week timepoints
  gap ratio values (gap/startle-only response), therapeutic effect on tinnitus: less pronounced
blast-exposed rats [3]; compare FIG. 29 with FIG. 15A
  onset of therapeutic effect relative to 3,6′-dithiothalidomide: delayed therapeutic effect
[4]
  effect on TBI: attenuates TBI
